The subject of one assay is Bel-7402. Nature of the assay: Antiproliferative activity against human Bel-7402 cells assessed as inhibition of cell growth incubated for 48 hrs by MTT assay. It counts as functional, cell-based. To be noted: Bel-7402, 48 h.
A further assay relates to CT26. The assay is described as follows: Antiproliferative activity against mouse CT26 cells assessed as inhibition of cell growth incubated for 48 hrs by MTT assay. It counts as functional, cell-based. To be noted: CT26, 48 h. Background: Tetrazolium dyes change colour on reduction, which living cells bring about.
Another assay has as its system BGC-823. The assay is described as follows: Antiproliferative activity against human BGC-823 cells assessed as inhibition of cell growth incubated for 48 hrs by MTT assay. It counts as functional, cell-based. The following applies: BGC-823, 48 h.
In a further assay the test system is MCF7. The assay is described as follows: Antiproliferative activity against human MCF7 cells assessed as inhibition of cell growth incubated for 48 hrs by MTT assay. It counts as functional, cell-based. The following applies: MCF7, 48 h.
A further assay relates to A549. Nature of the assay: Antiproliferative activity against human A549 cells assessed as inhibition of cell growth incubated for 48 hrs by MTT assay. It counts as functional, cell-based. To be noted: A549, 48 h.
Assay [1] concerns the target Vascular endothelial growth factor receptor 2 (Mus musculus) (UniProt P35918). The assay is described as follows: Inhibition of VEGFR2 autophosphorylation in mouse BEND3 cells incubated for 2 hrs by Western blotting analysis. It counts as cell-based. (In general: A western blot detects proteins with antibodies after separation by electrophoresis.)
The subject of the next assay is Chorioallantoic membrane. The assay is described as follows: Antiangiogenic activity in chicken embryo chorioallantoic membrane assessed as decrease in microvessel density incubated for 48 hrs by microscopic analysis. To be noted: Gallus gallus. It counts as functional, tissue-based.

Usually IC50 stands for the concentration that inhibits the measured activity by half.

Chain of Vascular endothelial growth factor receptor 2 (Mus musculus) (P35918 whole entry): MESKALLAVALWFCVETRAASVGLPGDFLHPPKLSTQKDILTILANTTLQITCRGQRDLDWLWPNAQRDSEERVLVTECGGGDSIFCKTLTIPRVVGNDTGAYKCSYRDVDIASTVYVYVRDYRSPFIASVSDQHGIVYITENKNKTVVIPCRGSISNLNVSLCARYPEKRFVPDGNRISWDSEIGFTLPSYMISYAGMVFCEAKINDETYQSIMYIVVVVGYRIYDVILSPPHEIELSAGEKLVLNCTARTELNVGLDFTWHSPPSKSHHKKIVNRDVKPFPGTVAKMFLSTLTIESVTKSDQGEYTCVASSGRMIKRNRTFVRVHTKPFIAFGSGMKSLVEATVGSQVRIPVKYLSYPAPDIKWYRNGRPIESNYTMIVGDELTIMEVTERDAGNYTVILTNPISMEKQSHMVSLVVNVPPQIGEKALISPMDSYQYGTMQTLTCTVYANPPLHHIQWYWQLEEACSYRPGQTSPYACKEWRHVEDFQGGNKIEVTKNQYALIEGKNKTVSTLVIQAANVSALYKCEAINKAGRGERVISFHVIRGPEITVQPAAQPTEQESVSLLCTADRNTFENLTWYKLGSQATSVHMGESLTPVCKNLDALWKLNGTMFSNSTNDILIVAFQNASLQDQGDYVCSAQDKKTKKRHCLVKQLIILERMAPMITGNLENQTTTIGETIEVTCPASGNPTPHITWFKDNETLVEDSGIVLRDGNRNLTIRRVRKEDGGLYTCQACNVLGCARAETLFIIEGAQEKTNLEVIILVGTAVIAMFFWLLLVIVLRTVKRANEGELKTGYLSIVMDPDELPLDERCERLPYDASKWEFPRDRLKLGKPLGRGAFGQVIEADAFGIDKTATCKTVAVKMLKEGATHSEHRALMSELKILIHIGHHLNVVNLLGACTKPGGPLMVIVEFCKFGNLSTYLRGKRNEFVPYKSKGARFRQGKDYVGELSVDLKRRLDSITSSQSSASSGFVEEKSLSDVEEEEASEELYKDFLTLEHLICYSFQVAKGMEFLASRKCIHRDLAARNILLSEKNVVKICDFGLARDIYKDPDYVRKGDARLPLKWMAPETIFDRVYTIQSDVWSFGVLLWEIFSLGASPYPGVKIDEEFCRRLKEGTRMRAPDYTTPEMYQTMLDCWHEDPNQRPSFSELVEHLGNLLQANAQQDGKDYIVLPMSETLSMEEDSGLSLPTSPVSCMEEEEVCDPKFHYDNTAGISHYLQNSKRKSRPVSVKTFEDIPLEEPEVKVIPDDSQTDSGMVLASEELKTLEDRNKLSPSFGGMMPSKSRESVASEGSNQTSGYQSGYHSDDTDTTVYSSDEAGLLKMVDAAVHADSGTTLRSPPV

For `Fc1ccc(Cn2c3ccccc3c3cc4cn(-c5ccccc5)c[n+]4cc32)cc1`, the IC50 was found to be 15.9 µM in the assay on Bel-7402; 4.3 µM with CT26; 14.1 µM in the assay on BGC-823; 12.5 µM in the assay on MCF7; 23.5 µM in the assay on A549.
Take `CCCCn1c2ccccc2c2cc3cn(-c4ccc5ccccc5c4)c[n+]3cc21`: the IC50 in the assay with Bel-7402 is 5.7 µM; in the assay on CT26 it was 4.9 µM; with BGC-823 it was 14.5 µM; with MCF7 it was 12.7 µM; in the assay with A549, 8.3 µM.
Taken in the same sequence, the figures for `Cn1c2ccccc2c2cc3cn(-c4cc(F)cc(F)c4)c[n+]3cc21` were 19.2 µM, 16.1 µM, 3.5 µM, 9.2 µM and 12.2 µM.
As for `COc1ccc(Cn2c3ccccc3c3cc4cn(-c5ccc(C(F)(F)F)cc5)c[n+]4cc32)cc1`, the IC50 in the assay on Bel-7402 was 4.1 µM; in the assay on CT26, 22.7 µM; in the assay on BGC-823, 3.5 µM; in the assay with MCF7, 15.7 µM; with A549, 9.9 µM.
On to `Cn1c2ccccc2c2cc3cn(-c4ccccc4)c[n+]3cc21`, for which the IC50 in the assay with Bel-7402 was found to be 18.3 µM; in the assay on CT26 it was 18.4 µM; in the assay on BGC-823 it was 12.5 µM; in the assay on MCF7, 20.1 µM; in the assay with A549 it was 7.8 µM.
In the case of `c1ccc(Cn2c3ccccc3c3cc4cn(-c5ccccc5)c[n+]4cc32)cc1`, the IC50 in the assay with Bel-7402 was 11.6 µM; in the assay with CT26, 7.3 µM; with BGC-823, 4.1 µM; in the assay with MCF7 it was 5.5 µM; in the assay on A549 it was 6.8 µM.
`Clc1cccc(Cn2c3ccccc3c3cc4cn(Cc5ccccc5)c[n+]4cc32)c1`: the IC50 is 10.8 µM with Bel-7402; 1.3 µM in the assay with CT26; 12.6 µM in the assay with BGC-823; 16.9 µM with MCF7; 22.6 µM in the assay on A549.
Regarding `FC(F)(F)c1cccc(-n2cc3cc4c5ccccc5n(Cc5cccc(Cl)c5)c4c[n+]3c2)c1`, the IC50 was found to be 5.5 µM in the assay with Bel-7402; 17.2 µM in the assay with CT26; 10.9 µM in the assay with BGC-823; 1.4 µM with MCF7; 8.5 µM in the assay on A549.
Taken in the same sequence, the figures for `CN(C)c1ccc(-n2cc3cc4c5ccccc5n(Cc5cccc(Cl)c5)c4c[n+]3c2)cc1` were 8.1 µM, 21.1 µM, 11.9 µM, 7.9 µM and 12.3 µM.
Take `Clc1cccc(Cn2c3ccccc3c3cc4cn(-c5ccccc5)c[n+]4cc32)c1`: the IC50 in the assay on Bel-7402 is 1.8 µM; with CT26 it was 5.8 µM; in the assay on BGC-823, 10.5 µM; in the assay with MCF7 it was 10.3 µM; in the assay with A549 it was 10.8 µM.
The like results for `CN(C)CCn1cc2cc3c4ccccc4n(CCCc4ccccc4)c3c[n+]2c1` were, in that order, 8.4 µM, 3.8 µM, 13.1 µM, 1.5 µM and 10.6 µM.
Regarding `CN(C)CCn1cc2cc3c4ccccc4n(Cc4ccccc4)c3c[n+]2c1`, the IC50 in the assay with Bel-7402 amounted to 8.3 µM; with CT26, 8.9 µM; in the assay with BGC-823, 2.8 µM; with MCF7, 4.6 µM; in the assay on A549, 11.7 µM.
Take `CCCCn1c2ccccc2c2cc3cn(-c4ccccc4)c[n+]3cc21`: the IC50 in the assay on Bel-7402 is 3.2 µM; in the assay on CT26 it was 1.1 µM; with BGC-823, 8.5 µM; in the assay on MCF7 it was 15.6 µM; with A549 it was 14.3 µM.
The like results for `Cn1c2ccccc2c2cc3cn(-c4cccc(C(F)(F)F)c4)c[n+]3cc21` were, in that order, 10.9 µM, 8.2 µM, 17.6 µM, 19.9 µM and 21.8 µM.
For the compound `FC(F)(F)c1ccc(-n2cc3cc4c5ccccc5n(Cc5cccc(Cl)c5)c4c[n+]3c2)cc1`, the IC50 in the assay on Bel-7402 was found to be 21.5 µM; in the assay with CT26, 6.9 µM; in the assay on BGC-823, 7.5 µM; in the assay with MCF7, 4.9 µM; in the assay on A549, 12.1 µM.
Take `FC(F)(F)c1ccc(-n2cc3cc4c5ccccc5n(CCCc5ccccc5)c4c[n+]3c2)cc1`: the IC50 in the assay with Bel-7402 is 5.2 µM; in the assay with CT26, 4.8 µM; in the assay with BGC-823, 17.5 µM; in the assay on MCF7, 3.3 µM; in the assay with A549, 23.9 µM.
The like results for `c1ccc(Cn2cc3cc4c5ccccc5n(Cc5ccccc5)c4c[n+]3c2)cc1` were, in that order, 13.2 µM, 15.9 µM, 3.4 µM, 2.5 µM and 21.3 µM.
For `CCCCn1c2ccccc2c2cc3cn(-c4ccc(C(F)(F)F)cc4)c[n+]3cc21`, the IC50 turned out to be 7.8 µM in the assay on Bel-7402; 9.8 µM in the assay on CT26; 1.3 µM with BGC-823; 12.1 µM in the assay with MCF7; 2.4 µM in the assay on A549. The inhibition entry in assay [1] was “Dose-dependent-effect”. Besides, the Activity result with Chorioallantoic membrane is “Dose-dependent-effect”.
Regarding `CN(C)c1ccc(-n2cc3cc4c5ccccc5n(C)c4c[n+]3c2)cc1`, the IC50 was found to be 22.5 µM with Bel-7402; 23.5 µM with CT26; 19.1 µM in the assay on BGC-823; 3.8 µM in the assay on MCF7; 15.4 µM in the assay with A549.
With `FC(F)(F)c1ccc(-n2cc3cc4c5ccccc5n(Cc5ccccc5)c4c[n+]3c2)cc1`, the IC50 in the assay with Bel-7402 is 16.3 µM; with CT26 it was 15.9 µM; in the assay with BGC-823, 1.1 µM; in the assay on MCF7, 9.1 µM; in the assay on A549, 23.2 µM.
`COc1ccc(Cn2c3ccccc3c3cc4cn(-c5ccccc5)c[n+]4cc32)cc1`: the IC50 is 16.8 µM with Bel-7402; 13.3 µM with CT26; 19.2 µM in the assay with BGC-823; 8.8 µM in the assay on MCF7; 14.3 µM in the assay with A549.
Taken in the same sequence, the figures for `COc1ccc(Cn2c3ccccc3c3cc4cn(-c5ccc(N(C)C)cc5)c[n+]4cc32)cc1` were 22.2 µM, 11.5 µM, 7.3 µM, 5.1 µM and 20.1 µM.
The like results for `FC(F)(F)c1cccc(-n2cc3cc4c5ccccc5n(Cc5ccccc5)c4c[n+]3c2)c1` were, in that order, 3.5 µM, 7.7 µM, 20.6 µM, 11.5 µM and 20.9 µM.
Taken in the same sequence, the figures for `CN(C)c1ccc(-n2cc3cc4c5ccccc5n(Cc5ccccc5)c4c[n+]3c2)cc1` were 16.2 µM, 19.4 µM, 7.7 µM, 14.1 µM and 7.5 µM.

These data come from ChEMBL document CHEMBL6083248, “Synthesis, pharmacological evaluation, and modeling of novel quaternary ammonium salts derived from β-carboline containing an imidazole moiety as angiogenesis inhibitors” (Bioorg Med Chem, 2024).
